Laboratory results: patent US6576671B1, “Aminotetralin derivatives for the therapy of cardiovascular diseases” (Chiese Farmaceutici S.p.A., priority 1999, dated 2003)
pIC50: −log10 of the molar value.

Assays:
[1] = target: T1, α2 adrenergic receptors (Homo sapiens, UniProt P08913); experiment: α2 adrenergic receptor binding, [3H]-rauwolscine, human platelets; details: human platelets; read-out: IC50, 50% inhibition of [3H]-rauwolscine specific binding
T1 construct: from tissue; host or cells: human platelets
T1 sequence (P08913 1-465): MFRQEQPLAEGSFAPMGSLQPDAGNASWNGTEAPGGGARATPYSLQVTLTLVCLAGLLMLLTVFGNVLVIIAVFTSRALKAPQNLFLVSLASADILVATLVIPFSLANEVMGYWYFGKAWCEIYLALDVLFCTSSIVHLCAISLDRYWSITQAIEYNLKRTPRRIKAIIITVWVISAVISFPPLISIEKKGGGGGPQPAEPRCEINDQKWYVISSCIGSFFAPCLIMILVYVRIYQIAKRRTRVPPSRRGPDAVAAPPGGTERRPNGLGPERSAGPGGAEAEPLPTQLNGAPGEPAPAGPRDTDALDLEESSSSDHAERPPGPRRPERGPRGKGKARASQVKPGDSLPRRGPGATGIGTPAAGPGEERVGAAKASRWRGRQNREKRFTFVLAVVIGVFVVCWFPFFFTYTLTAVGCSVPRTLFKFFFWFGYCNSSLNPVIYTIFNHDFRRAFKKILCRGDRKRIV
Text: (§1) The antagonist [^3H]-rauwolscine was used as marker of the receptor, being its binding reversible, saturable and specific.

[2] = target: α2 adrenergic receptors; experiment: α2 adrenergic receptor binding, [3H]-rauwolscine, rat cerebral cortex; details: rat cerebral cortex; read-out: IC50, 50% inhibition of [3H]-rauwolscine specific binding
Description: The affinity of CHF 1024 and CHF 1035 for α2, adrenergic receptors was tested on human platelets and on rat cerebral cortex.
as §1
Values are expressed as IC50=molar concentration of drug required for 50% inhibition of [^3H]-rauwolscine specific binding.

[3] = target: α2-adrenergic receptors; experiment: α2-adrenergic activity in isolated neuronally-stimulated rat vas deferens
[4] = test system: patients with a moderate congestive heart failure (class NYHA II-III); experiment: Randomized double-blind study versus placebo, hemodynamic and neurohumoral parameters; format: in vivo, human
Description: In order to investigate the effects of the compound both on the hemodynamic parameters and the neurohumoral pattern, a randomized double-blind study versus placebo was carried out in 18 patients with a moderate congestive heart failure (class NYHA II-III).
Each patient received on 3 consecutive days 2 active doses of CHF 1035 and 1 placebo dose.
The following hemodynamic parameters were evaluated:
pulmonary capillary wedge pressure (PCWP) (mmHg);
cardiac index (CJ) (L/min/m^2);
stroke volume index (SVI) (ml/min/m^2);
systemic vascular resistance (SVR) (dyneseccm^−5);
mean blood pressure (BPm) (mmHg).
The evaluations were carried out by catheterization of the right heart (Swan-Ganz catheter), measuring the hemodynamic parameters of the tested medicament before administration or “pre-dose” (PD) and for the 300 subsequent minutes after the administration or “after-dose” (AD), every 20 minutes for the first 2 hours, then every 60 minutes.
To evaluate the effects of the compound on neurohormones, noradrenaline (NE) (pg/ml) and adrenalin (E) (pg/ml) plasmatic levels were further evaluated, before and 140 minutes after the administration of CHF 1035 and placebo, respectively.

[5] = test system: patients suffering from NYHA class II-III congestive heart failure; experiment: Add-on therapy study, 28 days, clinical condition and exercise capacity; format: in vivo, human
Description: The effects of CHF 1030 as added therapy have been evaluated in patients suffering from NYHA class II-III congestive heart failure due to mild hypertension, or coronary disease, or chronic cardiomyopathy who were on diuretics or diuretics and an angiotensin-converting enzyme inhibitor.
Recruited patients were randomly assigned to added double-blind treatment with placebo or with three different doses of the study drug (5 mg, 10 mg, 15 mg).
The study therapy was started by patients on day 1 and proceeded until day 28 of the study.
The following parameters have been considered to determine the clinical condition of patients:
The functional response to the treatments has been evaluated by exertional tests, the 6-minute walking test and the 130-meter walking test.
For the evaluation of clinical condition, more than 60 symptoms or signs were evaluated.
For statistical purposes scores from signs and symptoms (as applicable) were summed to form clinical compound scorings (CCSs) of pathophysiological importance in congestive heart failure.

[6] = test system: plasma and tissue esterases; experiment: Transformation into the desesterified form after administration; format: in vivo
[7] = 5 mg, 140 minutes after administration (AD)
[8] = 5 mg, before administration (PD)
[9] = 10 mg, 140 minutes after administration (AD)
[10] = 10 mg, before administration (PD)
[11] = 15 mg, 140 minutes after administration (AD)
[12] = 15 mg, before administration (PD)

CNC1CCc2c(ccc(OC(=O)C(C)C)c2OC(=O)C(C)C)C1 (centres unmarked) [CHF 1035, 5,6-Diisobutyroyloxy-2-methylaminotetralin]
pIC50 [1]: 4.57 | pIC50 [2]: 5.58 | pIC50 ([3]; isolated neuronally-stimulated rat vas deferens, read-out: IC50, 50% inhibition of the electrically induced contraction): 7.15 | more potent than dopamine ([3]; rat vas deferens): ~70 times | reduction in the peripheral vascular resistances ([4]; 5 mg): −15.4% | adrenalin (E) plasmatic level [4, 7]: 42 pg/mL | noradrenaline (NE) plasmatic level [4, 7]: 301 pg/mL | cardiac index (CI) ([4]; 5 mg, after-dose (AD)): 3.4 L/min/m^2 | heart rate (HR) ([4]; 5 mg, after-dose (AD)): 78 bpm | mean blood pressure (BPm) ([4]; 5 mg, after-dose (AD)): 82 mmHg | pulmonary capillary wedge pressure (PCWP) ([4]; 5 mg, after-dose (AD)): 18 mmHg | stroke volume index (SVI) ([4]; 5 mg, after-dose (AD)): 43 ml/min/m^2 | systemic vascular resistance (SVR) ([4]; 5 mg, after-dose (AD)): 1052 dyneseccm^−5 | adrenalin (E) plasmatic level [4, 8]: 56 pg/mL | noradrenaline (NE) plasmatic level [4, 8]: 299 pg/mL | cardiac index (CI) ([4]; 5 mg, pre-dose (PD)): 3 L/min/m^2 | heart rate (HR) ([4]; 5 mg, pre-dose (PD)): 74 bpm | mean blood pressure (BPm) ([4]; 5 mg, pre-dose (PD)): 85 mmHg | pulmonary capillary wedge pressure (PCWP) ([4]; 5 mg, pre-dose (PD)): 22 mmHg | systemic vascular resistance (SVR) ([4]; 5 mg, pre-dose (PD)): 1243 dyneseccm^−5 | reduction in the peripheral vascular resistances ([4]; 10 mg): −27.0% | adrenalin (E) plasmatic level [4, 9]: 62 pg/mL | noradrenaline (NE) plasmatic level [4, 9]: 244 pg/mL | cardiac index (CI) ([4]; 10 mg, after-dose (AD)): 3.4 L/min/m^2 | heart rate (HR) ([4]; 10 mg, after-dose (AD)): 76 bpm | mean blood pressure (BPm) ([4]; 10 mg, after-dose (AD)): 77 mmHg | pulmonary capillary wedge pressure (PCWP) ([4]; 10 mg, after-dose (AD)): 16 mmHg | stroke volume index (SVI) ([4]; 10 mg, after-dose (AD)): 45 ml/min/m^2 | systemic vascular resistance (SVR) ([4]; 10 mg, after-dose (AD)): 1009 dyneseccm^−5 | adrenalin (E) plasmatic level [4, 10]: 65 pg/mL | noradrenaline (NE) plasmatic level [4, 10]: 285 pg/mL | cardiac index (CI) ([4]; 10 mg, pre-dose (PD)): 2.7 L/min/m^2 | heart rate (HR) ([4]; 10 mg, pre-dose (PD)): 70 bpm | mean blood pressure (BPm) ([4]; 10 mg, pre-dose (PD)): 85 mmHg | pulmonary capillary wedge pressure (PCWP) ([4]; 10 mg, pre-dose (PD)): 20 mmHg | stroke volume index (SVI) ([4]; 10 mg, pre-dose (PD)): 38 ml/min/m^2 | systemic vascular resistance (SVR) ([4]; 10 mg, pre-dose (PD)): 1382 dyneseccm^−5 | reduction in the peripheral vascular resistances ([4]; 15 mg): −35.2% | adrenalin (E) plasmatic level [4, 11]: 58 pg/mL | noradrenaline (NE) plasmatic level [4, 11]: 308 pg/mL | cardiac index (CI) ([4]; 15 mg, after-dose (AD)): 4 L/min/m^2 | heart rate (HR) ([4]; 15 mg, after-dose (AD)): 80 bpm | mean blood pressure (BPm) ([4]; 15 mg, after-dose (AD)): 79 mmHg | pulmonary capillary wedge pressure (PCWP) ([4]; 15 mg, after-dose (AD)): 16 mmHg | stroke volume index (SVI) ([4]; 15 mg, after-dose (AD)): 49 ml/min/m^2 | systemic vascular resistance (SVR) ([4]; 15 mg, after-dose (AD)): 881 dyneseccm^−5 | adrenalin (E) plasmatic level [4, 12]: 53 pg/mL | noradrenaline (NE) plasmatic level [4, 12]: 340 pg/mL | cardiac index (CI) ([4]; 15 mg, pre-dose (PD)): 3 L/min/m^2 | heart rate (HR) ([4]; 15 mg, pre-dose (PD)): 74 bpm | mean blood pressure (BPm) ([4]; 15 mg, pre-dose (PD)): 87 mmHg | pulmonary capillary wedge pressure (PCWP) ([4]; 15 mg, pre-dose (PD)): 21 mmHg | stroke volume index (SVI) ([4]; 15 mg, pre-dose (PD)): 40 ml/min/m^2 | systemic vascular resistance (SVR) ([4]; 15 mg, pre-dose (PD)): 1359 dyneseccm^−5 | increase in heart rate ([4]; 5, 10, 15 mg, only a relative increase): not clinically significant | catecholamines plasmatic levels ([4]; during systemic vasodilation): without inducing any reflected increase | functional and clinical condition of patients, compared to placebo ([5]; 5, 10, 15 mg add-on to diuretics or diuretics and ACE inhibitor, day 1 to 28): improved | duration of pharmacodynamic effects versus serum levels of the drug ([5]; patients with congestive heart failure): last longer than detectable serum levels | transformation by plasma and tissue esterases into the active desesterified form [6]: Immediately after the administration
